In US20090130017A1, “Targeted short-lived drug delivery” (Searete LLC, priority 2007, published 2009):
Like-named read-outs stand apart in the source and are kept apart here.

Assays:
[1] = in vivo; cited from earlier work
[2] = cited from earlier work
[3] = estimated blood plasma concentration of oxaliplatin in systemic therapy for colon cancer; format: in vivo, human; settings: 85 mg per meter-squared, 145 mg total dose, 65 kg person, 5 liters of blood, assuming even distribution and constant rate of elimination
[4] = rat, in vivo; cited from earlier work
[5] = cited from earlier work; remark: listed apart in the source
[6] = IV infusion of 20 mcg/kg over 24 hours

For `Nc1ncnc2c1ncn2[C@@H]1O[C@H](CO)[C@@H](O)[C@H]1O` [Adenosine, adenosine], the “half-life (in words)” value [1] is listed as “a few seconds”.

For `O=C(O)CCCc1ccc(N(CCCl)CCCl)cc1` [Chlorambucil, chlorambucil], the half-life ([2]; in human) is given as “about 1.5 hours”.

For `CC[C@H]1OC(=O)[C@H](C)[C@@H](O[C@H]2C[C@@](C)(OC)[C@@H](O)[C@H](C)O2)[C@H](C)[C@@H](O[C@@H]2O[C@H](C)C[C@H](N(C)C)[C@H]2O)[C@](C)(O)C[C@@H](C)C(=O)[C@H](C)[C@@H](O)[C@]1(C)O` [Erythromycin, erythromycin], the half-life [1] is listed as “approximately 1.5 hours”.

For `N.N.O=C([O-])C1(C(=O)[O-])CCC1.[Pt+2]` [carboplatin], the half-life [1] is listed as 60 to 120 min.

In the case of `COc1cc([C@@H]2c3cc4c(cc3[C@@H](O[C@@H]3O[C@@H]5CO[C@@H](C)O[C@H]5[C@H](O)[C@H]3O)[C@H]3COC(=O)[C@H]23)OCO4)cc(OC)c1O` [etoposide], the half-life ([2]; in children) is listed as “about 3 hours”.

In the case of `O=C1[O][Pt]2([NH][C@@H]3CCCC[C@H]3[NH]2)[O]C1=O` [oxaliplatin], the half-life [1] is listed as 10 to 25 min and the blood plasma concentration [3] is listed as “approximately 3 micrograms per milliliter”.

For `COc1ccc(C(CN(C)C)C2(O)CCCCC2)cc1` (centres unmarked) [venlafaxine], the half-life [1] is given as “about 5 hours”.

For NGF: nerve growth factor, the serum half-life [4] is given as “about 7.2 minutes”.

In the case of heparin, the half-life [1] is given as “around 1.5 hours”.

In the case of streptokinase, the half-life [1] is given as “about 20 minutes”.

For tissue plasminogen activator [TPA], the circulation half-life [1] is listed as “approximately 5 minutes”.

B1: NEUPOGEN® (Filgrastim): colony stimulating factor product, normally used systemically (protein, chains of the INN, looked up)
chain: MTPLGPASSLPQSFLLKCLEQVRKIQGDGAALQEKLCATYKLCHPEELVLLGHSLGIPWAPLSSCPSQALQLAGCLSQLHSGLFLYQGLLQALEGISPELGPTLDTLQLDVADFATTIWQQMEELGMAPALQPTQGAMPAFASAFQRRAGGVLVASHLQSFLEVSYRVLRHLAQP
In the case of B1, the mean serum concentration [5, 6] is given as “approximately 48 ng/mL”, the median serum concentration [5, 6] is given as roughly 56 ng/mL and the maximum serum concentration ([5]; subcutaneous administration of 3.45 mcg/kg) is given as 4 ng/mL. For the same molecule, the maximum serum concentration ([5]; subcutaneous administration of 11.5 mcg/kg) was 49 ng/mL and the half-life [1] was “about 3.5 hours”.
